Entries after “also recorded” stand apart in the source; their conditions may differ.
Columns and labels:
rat model of ALS = conditions: downregulation of aberrant glial cells and reactive microglia; cited from earlier work
[1] = tested on: SOD1G93A mutant rat model of ALS; test: Immunohistochemical staining of spinal cords after post-paralysis isoquercetin treatment (Example 1); assay type: in vivo; conditions: SOD1G93A rats, versus vehicle
Protocol: Materials and Methods: Animals: Male SOD1G93A progeny were used for further breeding to maintain the line. Rats were housed in a centralized animal facility with a 12-h light-dark cycle with ad libitum access to food and water. Perfusion with fixatives was performed under 90% ketamine-10% xylazine anesthesia and all efforts were made to minimize animal suffering, discomfort, or stress. All procedures using laboratory animals were performed in accordance with the national and international guidelines and were approved by the Institutional Animal Committee for animal experimentation. Male hemizygous NTac:SD-TgN (SOD1-G93A)L26H rats (Taconic), originally developed by Howland et al. (2002), were bred locally by crossing with wild-type nontransgenic Sprague-Dawley female rats.
Treatment with Isoquercetin: All rats were weighed and evaluated for motor activity daily.
Fixed spinal cords were removed, postfixed by immersion for 24 h, and then transverse sectioned ([…]) in a Leica cryostat. Serial sections were collected in 100 mM PBS for immunohistochemistry.

SMILES	paralysis progression (rat model of ALS)	number of ventral horn motor neurons expressing misfolded SOD1 and Ubiquitin ([1]; 15 days after paralysis onset)	microgliosis: number of Iba1+ cells in the ventral horn of the lumbar spinal cord ([1]; oral 30 mg/kg/day for 15 days starting after paralysis onset, 30 mg/kg/day)	number of hypertrophic (reactive, GFAP-positive) astrocytes surrounding motor neurons in the lumbar spinal cord ([1]; oral 30 mg/kg/day for 15 days starting after paralysis onset, given together with vitamin C and niacin, 30 mg/kg/day)
Cc1ccc(NC(=O)c2ccc(CN3CCN(C)CC3)cc2)cc1Nc1nc(-c2cccnc2)cs1 [masitinib]	slowed paralysis progression			
O=c1c(O[C@@H]2O[C@H](CO)[C@@H](O)[C@H](O)[C@H]2O)c(-c2ccc(O)c(O)c2)oc2cc(O)cc(O)c12 [isoquercetin, quercetin-3-O-β-d-glucopyranoside]		apparently reduced; also recorded: significant reduction	significantly reduced; also recorded: Significant reduction	significantly reduced; also recorded: significant reduction

From patent US12403122B2, “Method for treating amyotrophic lateral sclerosis using quercetin-containing compositions” (Quercis Pharma AG, priority 2021, dated 2025)
